{
  "source": "patent EP2235030B1",
  "about": "“COMPOUND OF THE DISACCHARIDE TYPE COMPOSITION COMPRISING AND METHOD FOR PRODUCING SUCH A COMPOUND” (Université de Picardie Jules Verne, priority 2007, dated 2009)",
  "key": {"Myzus persicae (Sulzer)": {"test_system": "Myzus persicae (Sulzer)", "test": "Aphid neonates reared on artificial diet supplemented with DPS2: demographic parameters", "assay_type": "in vivo", "details": "for Temps de doublement de la population / Fécondité journalière / Période préreproductive / rm: mean ± SD; for rm: intrinsic rate of population increase", "experimental": "(§1) Deux espèces de pucerons Myzus persicae (Sulzer) et Macrosiphum euphorbiae (Thomas) ont été utilisées pour cette étude. Des adultes ont été isolés et placés dans des cages de PVC sur milieu artificiel pendant une journée afin de synchroniser la descendance. Les néonates, âgés de moins de 24 h sont alors placés sur milieu artificiel contenant des concentrations variant de 0 à 100 µg.mL^-1 du composé DPS2, synthétisé précédemment, selon un protocole décrit par Saguez J, Dubois F, Vincent C, Laberche JC, Sangwan-Norreel BS et Giordanengo P (2006), dans l'article intitulé « Differential aphicidal effects of chitinase inhibitors on the polyphagous homopteran Myzus pensicae (Sulzer) » et publié dans Pest Manag Sci 62: 1150-1154. Plusieurs paramètres démographiques sont relevés quotidiennement afin de déterminer la durée du développement larvaire, la mortalité larvaire et la fécondité et de calculer un paramètre synthétique, le rm (taux intrinsèque d'accroissement des populations) et le temps de doublement des populations. Un minimum de 50 pucerons de chaque espèce est testé par traitement et les individus sont suivis quotidiennement. La taille des pucerons a été mesurée une semaine après le début de l'expérience, sous loupe binoculaire à l'aide d'un oculaire biométrique. Les effets du DPS2 sur la survie larvaire sont analysés par un test du χ^2 de Pearson. Une analyse de variance (ANOVA monofactorielle) a été réalisée avec le logiciel Statistica 5.5 (StatSoft®, Tulsa, Oklahoma, USA) pour tester les effets du DPS2 sur les paramètres démographiques des aphides. Les paramètres significativement altérés sont ensuite analysés par un test de Fisher (PLSD) au seuil de significativité P <0,05.\n(§2) Dans les tableaux I, II et III qui suivent, les résultats sont exprimés sous la forme : moyenne ± écart-type. L'effet significatif (*) été testé par une analyse de variance monofactorielle (F) à P<0.05. Les valeurs de même rang suivies par une même lettre indiquent qu'il n'existe pas de différence significative d'après le test du PLSD de Fisher (P<0.05)."}, "[1]": {"test_system": "Macrosiphum euphorbiae (Thomas)", "test": "Aphid neonates reared on artificial diet supplemented with DPS2: demographic parameters and body size", "assay_type": "in vivo", "details": "for rm: intrinsic rate of population increase", "experimental": "as §1, §2"}, "[2]": {"test_system": "pucerons M. persicae et M. euphorbiae", "test": "Aphid artificial diet test, statements made for both aphid species without distinction", "assay_type": "in vivo, Myzus persicae, Macrosiphum euphorbiae", "experimental": "as §1"}, "[3]": {"test_system": "chitinases d'insectes et de champignons", "details": "competitive inhibition; cited from earlier work"}, "[4]": {"details": "DPS2 1 µg.mL^-1 in artificial diet"}, "[5]": {"details": "DPS2 10 µg.mL^-1 in artificial diet"}, "[6]": {"details": "DPS2 50 µg.mL^-1 in artificial diet"}, "[7]": {"details": "DPS2 100 µg.mL^-1 in artificial diet"}, "[8]": {"details": "DPS2 1 µg.mL^-1 in artificial diet, mean ± SD"}, "[9]": {"details": "DPS2 10 µg.mL^-1 in artificial diet, mean ± SD"}, "[10]": {"details": "DPS2 50 µg.mL^-1 in artificial diet, mean ± SD"}, "[11]": {"details": "DPS2 100 µg.mL^-1 in artificial diet, mean ± SD"}},
  "note": "Marks after values point to notes of the source that are not given here.",
  "data": [
    {"compound": "CCCOC1O[C@H](COS(=O)(=O)O)[C@@H](O[C@@H]2O[C@H](CO)[C@@H](O)[C@H](O)[C@H]2NC(C)=O)[C@H](O)[C@H]1OC(C)=O", "note": "(stereo partly shown) [DPS2]", "values": [
      {"measurement": "Temps de doublement de la population", "setting": "Myzus persicae (Sulzer); DPS2 1 µg.mL^-1", "value": "5,6 ± 1,8^b jours"},
      {"measurement": "Fécondité journalière", "setting": "Myzus persicae (Sulzer); [4]", "value": "0,99 ± 0,27^a larves.femelles-1.jour-1"},
      {"measurement": "Période préreproductive", "setting": "Myzus persicae (Sulzer); [4]", "value": "11,6 ± 1,9^b jours"},
      {"measurement": "Temps de doublement de la population", "setting": "Myzus persicae (Sulzer); DPS2 10 µg.mL^-1", "value": "5,4 ± 1,2^b b jours"},
      {"measurement": "Fécondité journalière", "setting": "Myzus persicae (Sulzer); [5]", "value": "0,91 ± 0,28^b larves.femelles-1.jour-1"},
      {"measurement": "Période préreproductive", "setting": "Myzus persicae (Sulzer); [5]", "value": "10,9 ± 1,5^a jours"},
      {"measurement": "Temps de doublement de la population", "setting": "Myzus persicae (Sulzer); DPS2 50 µg.mL^-1", "value": "5,9 ± 1,6^b b jours"},
      {"measurement": "Fécondité journalière", "setting": "Myzus persicae (Sulzer); [6]", "value": "0,74 ± 0,24^bc larves.femelles-1.jour-1"},
      {"measurement": "Période préreproductive", "setting": "Myzus persicae (Sulzer); [6]", "value": "11,1 ± 1,4^a jours"},
      {"measurement": "Temps de doublement de la population", "setting": "Myzus persicae (Sulzer); DPS2 100 µg.mL^-1", "value": "6,5 ± 2,0^a jours"},
      {"measurement": "Fécondité journalière", "setting": "Myzus persicae (Sulzer); [7]", "value": "0,65 ± 0,11^bc larves.femelles-1.jour-1"},
      {"measurement": "Période préreproductive", "setting": "Myzus persicae (Sulzer); [7]", "value": "11,9 ± 1,7^b jours"},
      {"measurement": "durée de la période pré-reproductive (augmentation)", "setting": "Myzus persicae (Sulzer); increase versus control diet", "value": "augmentée d'environ une journée"},
      {"measurement": "rm", "setting": "Myzus persicae (Sulzer); DPS2 1 µg.mL^-1", "value": "0,13 ± 0,04^b femelles.femelles^-1 .jours^-1"},
      {"measurement": "rm", "setting": "Myzus persicae (Sulzer); DPS2 10 µg.mL^-1", "value": "0,13 ± 0,03^b femelles.femelles^-1 .jours^-1"},
      {"measurement": "rm", "setting": "Myzus persicae (Sulzer); DPS2 50 µg.mL^-1", "value": "0,12 ± 0,03^bc femelles.femelles^-1 .jours^-1"},
      {"measurement": "rm", "setting": "Myzus persicae (Sulzer); DPS2 100 µg.mL^-1", "value": "0,11 ± 0,03^c femelles.femelles^-1 .jours^-1"},
      {"measurement": "taille des pucerons", "setting": "[1]; DPS2 1 µg.mL-1 in artificial diet, after 7 days, mean ± SD", "value": "2,2 ± 0,3^a mm"},
      {"measurement": "Temps de doublement de la population", "setting": "[1]; DPS2 1 µg.mL^-1, mean ± SD", "value": "4,7 ± 1,0^ab jours"},
      {"measurement": "Fécondité journalière", "setting": "[1]; [8]", "value": "1,16 ± 0,36^a larves.femelles-1 .jour-1"},
      {"measurement": "Période préreproductive", "setting": "[1]; [8]", "value": "11,3 ± 2,1^a jours"},
      {"measurement": "taille des pucerons", "setting": "[1]; DPS2 10 µg.mL-1 in artificial diet, after 7 days, mean ± SD", "value": "2,1 ± 0,3^b mm"},
      {"measurement": "Temps de doublement de la population", "setting": "[1]; DPS2 10 µg.mL^-1, mean ± SD", "value": "5,5 ± 1,3^b jours"},
      {"measurement": "Fécondité journalière", "setting": "[1]; [9]", "value": "1,06 ± 0,34^a larves.femelles-1 .jour-1"},
      {"measurement": "Période préreproductive", "setting": "[1]; [9]", "value": "12,1 ± 1,6^a jours"},
      {"measurement": "taille des pucerons", "setting": "[1]; DPS2 50 µg.mL-1 in artificial diet, after 7 days, mean ± SD", "value": "1,8 ± 0,2^bc mm"},
      {"measurement": "Temps de doublement de la population", "setting": "[1]; DPS2 50 µg.mL^-1, mean ± SD", "value": "8,1 ± 1,6^c jours"},
      {"measurement": "Fécondité journalière", "setting": "[1]; [10]", "value": "0,81 ± 0,20^b larves.femelles-1 .jour-1"},
      {"measurement": "Période préreproductive", "setting": "[1]; [10]", "value": "13,4 ± 1,2^b jours"},
      {"measurement": "taille des pucerons", "setting": "[1]; DPS2 100 µg.mL-1 in artificial diet, after 7 days, mean ± SD", "value": "1,7 ± 0,2^c mm"},
      {"measurement": "Temps de doublement de la population", "setting": "[1]; DPS2 100 µg.mL^-1, mean ± SD", "value": "6,5 ± 2,0^c jours"},
      {"measurement": "Fécondité journalière", "setting": "[1]; [11]", "value": "0,73 ± 0,22^b larves.femelles-1 .jour-1"},
      {"measurement": "Période préreproductive", "setting": "[1]; [11]", "value": "13,5 ± 1,6^b jours"},
      {"measurement": "mortality at 50 µg/mL", "setting": "[1]; Macrosiphum euphorbiae, 50 µg.mL^-1, read-out: mortalité larvaire", "value": 49, "unit": "%"},
      {"measurement": "mortality at 100 µg/mL", "setting": "[1]; Macrosiphum euphorbiae, 100 µg.mL^-1, read-out: mortalité larvaire", "value": 53, "unit": "%"},
      {"measurement": "taille des pucerons", "setting": "[1]; from 10 µg.mL^-1 upwards", "value": "réduite"},
      {"measurement": "augmentation du temps de doublement des populations", "setting": "[1]; highest concentrations, 'près de'", "value": "~4", "unit": "jours"},
      {"measurement": "durée de la période pré-reproductive (augmentation)", "setting": "[1]; increase versus control diet, at the highest concentrations", "value": "deux jours"},
      {"measurement": "rm", "setting": "[1]; DPS2 1 µg.mL^-1, mean ± SD", "value": "0,16 ± 0,04^b femelles.femelles^-1.jours^-1"},
      {"measurement": "rm", "setting": "[1]; DPS2 10 µg.mL^-1, mean ± SD", "value": "0,13 ± 0,03^b femelles.femelles^-1.jours^-1"},
      {"measurement": "rm", "setting": "[1]; DPS2 50 µg.mL^-1, mean ± SD", "value": "0,09 ± 0,03^c femelles.femelles^-1.jours^-1"},
      {"measurement": "rm", "setting": "[1]; DPS2 100 µg.mL^-1, mean ± SD", "value": "0,08 ± 0,03^c femelles.femelles^-1.jours^-1"},
      {"measurement": "processus de mue", "setting": "[2]; DPS2 between 50 and 100 µg.mL^-1, many aphids die before leaving the old cuticle", "value": "affectés"},
      {"measurement": "taux intrinsèque d'accroissement des populations (rm)", "setting": "[2]; both aphid species, including the lowest concentration of 1 µg.mL^-1", "value": "réduite"},
      {"measurement": "concentration dès laquelle les effets aphicides maximum sont obtenus", "setting": "[2]; whatever parameter and aphid species, effects similar at 50 and 100 µg.mL^-1", "value": 50, "unit": "µg/mL"}
    ]},
    {"compound": "allosamidine", "values": [
      {"measurement": "activité inhibitrice contre les chitinases", "setting": "[3]", "value": "puissante activité inhibitrice"}
    ]}
  ]
}
